Data from patent US5053336A, “Monoclonal antibodies for the separate detection of halodeoxyuridines and method for their use” (Regents of the University of California, priority 1989, dated 1991).
One block for each compound: values may come before it.

Test system: monoclonal antibody Br-3 (IgG1, kappa; hybridoma ATCC deposit)
Assay: competition ELISA (c-ELISA), specificity of antibody for halogenated deoxyuridines
Type: binding, mouse (SJL/Jax)
Text: A competition enzyme-linked immunosorbent assay (c-ELISA) wa developed to assess the specificity of the antibody for halogenated deoxyuridines by the method of Stanker, et al. (1986) described previously. The competition ELISA data was normalized using 100% activity as the optical density in wells in which antibody was bound to the solid phase antigen (BSA-hapten) in the absence of any competitor. The test wells, each containing different amounts of competitor, were normalized to the 100% activity wells. Percent inhibition was calculated by subtracting the normalized percent binding activity from 100. A smaller I50 value indicates a higher relative affinity of the antibody for the compound. I50 values were estimated graphically from competition ELISA data. When 50% inhibition could not be attained, the value of the highest level of competitor tested is reported. Competition binding data for antibodies reactive with brominated nucleoside analogs are shown in FIG. 1, and the values represent the averages from at least 12 independent assays.
The concentration of IdUMP which causes a 50% binding inhibition to monoclonal antibody Br-3 is 100 times greater for IdUMP than with BrdUMP.

concentration which causes a 50% binding inhibition (I50), relative to BrdUMP (I50 of IdUMP compared with I50 of BrdUMP, FIG. 1, averages of at least 12 assays): 100 times
Compound: O=c1[nH]c(=O)n([C@H]2C[C@H](O)[C@@H](COP(=O)(O)O)O2)cc1I [IdUMP, 5-iodo-2'-deoxyuridine-5-monophosphate]

IC50 (50% inhibition not attained at the highest level of competitor tested, read-out: concentration for 50% binding inhibition (I50)): > 100 µM
Compound: Cc1cn([C@H]2C[C@H](O)[C@@H](COP(=O)(O)O)O2)c(=O)[nH]c1=O [dTMP, deoxythymidine-5-monophosphate]

Compound: O=c1[nH]c(=O)n([C@H]2C[C@H](O)[C@@H](COP(=O)(O)O)O2)cc1F [fluorinated deoxyuridine analog, 5-fluoro-2'-deoxyuridine-5-monophosphate]
Br-3 binding (competition ELISA) (compared with the iodinated analog, FIG. 1): comparable to that of the iodinated analog
